According to ChEMBL document CHEMBL4402597, “Truncated (N)-Methanocarba Nucleosides as Partial Agonists at Mouse and Human A3 Adenosine Receptors: Affinity Enhancement by N6-(2-Phenylethyl) Substitution” (J Med Chem, 2020):

Experiments:
Adenosine receptor A2a [1] = target: T1, Adenosine receptor A2a (Homo sapiens, UniProt P29274); assay: Displacement of [3H]CGS21680 from recombinant human A2AAR expressed in HEK293 cell membranes at 10 uM measured after 60 mins by liquid scintillation counting method relative to control
Adenosine receptor A3 [2] = target: T2, Adenosine receptor A3 (Homo sapiens, UniProt P0DMS8); assay: biochemical
T2 sequence (P0DMS8 whole entry): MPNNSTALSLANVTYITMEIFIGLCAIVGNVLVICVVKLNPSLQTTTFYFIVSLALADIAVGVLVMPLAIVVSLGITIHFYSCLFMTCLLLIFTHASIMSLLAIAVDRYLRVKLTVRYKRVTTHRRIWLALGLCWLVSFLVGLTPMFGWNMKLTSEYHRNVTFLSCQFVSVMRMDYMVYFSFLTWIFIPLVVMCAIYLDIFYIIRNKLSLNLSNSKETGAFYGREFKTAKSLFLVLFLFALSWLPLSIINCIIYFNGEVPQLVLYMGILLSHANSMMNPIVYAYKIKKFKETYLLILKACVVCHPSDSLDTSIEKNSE

Adenosine receptor A3 [3] = target: T3, Adenosine receptor A3 (Mus musculus, UniProt Q61618); assay: biochemical
T3 sequence (Q61618 whole entry): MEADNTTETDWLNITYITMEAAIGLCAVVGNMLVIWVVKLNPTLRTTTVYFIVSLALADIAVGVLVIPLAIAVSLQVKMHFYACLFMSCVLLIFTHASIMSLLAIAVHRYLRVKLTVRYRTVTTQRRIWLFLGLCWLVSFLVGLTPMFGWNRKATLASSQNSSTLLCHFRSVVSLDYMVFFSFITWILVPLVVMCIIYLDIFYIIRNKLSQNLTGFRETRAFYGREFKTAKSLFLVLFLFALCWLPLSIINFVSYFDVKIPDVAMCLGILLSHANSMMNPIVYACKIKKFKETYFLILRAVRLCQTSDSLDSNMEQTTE

[4] = target: T4, Adenosine receptor A1 (Homo sapiens) (UniProt P30542); assay: Displacement of [3H]R-PIA from recombinant human A1AR expressed in HEK293 cell membranes at 10 uM measured after 60 mins by liquid scintillation counting method relative to control
T4 sequence (whole entry): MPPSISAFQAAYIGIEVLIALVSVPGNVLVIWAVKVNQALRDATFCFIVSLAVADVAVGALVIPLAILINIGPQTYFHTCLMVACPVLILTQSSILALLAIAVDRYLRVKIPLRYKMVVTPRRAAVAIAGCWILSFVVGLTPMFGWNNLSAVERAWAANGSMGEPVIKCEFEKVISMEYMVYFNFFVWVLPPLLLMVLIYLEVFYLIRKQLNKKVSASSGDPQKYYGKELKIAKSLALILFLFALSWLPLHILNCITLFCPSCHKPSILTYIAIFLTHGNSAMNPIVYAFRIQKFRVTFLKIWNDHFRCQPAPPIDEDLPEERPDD

Adenosine receptor A1 [5] = target: T5, Adenosine receptor A1 (Homo sapiens, UniProt P30542); assay: Displacement of [3H]R-PIA from recombinant human A1AR expressed in HEK293 cell membranes measured after 60 mins by liquid scintillation counting method
T5 sequence (P30542 whole entry): T4 sequence (whole entry)

Adenosine receptor A1 [6] = target: T6, Adenosine receptor A1 (Mus musculus, UniProt Q60612); assay: Displacement of [3H]R-PIA from recombinant mouse A1AR expressed in HEK293 cell membranes measured after 60 mins by liquid scintillation counting method
T6 sequence (Q60612 whole entry): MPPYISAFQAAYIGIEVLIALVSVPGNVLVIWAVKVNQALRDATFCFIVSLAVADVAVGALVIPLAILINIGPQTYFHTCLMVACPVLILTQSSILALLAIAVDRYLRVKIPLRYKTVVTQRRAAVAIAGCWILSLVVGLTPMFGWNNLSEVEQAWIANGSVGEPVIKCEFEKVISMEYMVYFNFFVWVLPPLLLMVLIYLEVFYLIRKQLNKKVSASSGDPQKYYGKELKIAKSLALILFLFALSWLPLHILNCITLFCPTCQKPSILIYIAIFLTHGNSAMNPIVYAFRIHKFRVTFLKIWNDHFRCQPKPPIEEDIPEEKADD

[7] = target: T7, Adenosine receptor A3 (Homo sapiens) (UniProt P0DMS8); assay: Partial agonist activity at recombinant human A3AR expressed in HEK293 cells assessed as inhibition of forskolin-stimulated cAMP accumulation by measuring residual cAMP level measured after 30 mins in presence of A2BAR blocker PSB-603 by Glo-sensor assay relative to control; format: functional, cell-based
T7 sequence (whole entry): T2 sequence (P0DMS8 whole entry)

[8] = target: T7, Adenosine receptor A3 (Homo sapiens); assay: Partial agonist activity at recombinant human A3AR expressed in HEK293 cells assessed as inhibition of forskolin-stimulated cAMP accumulation at 10 uM measured after 30 mins in presence of A2BAR blocker PSB-603 by Glo-sensor assay relative to Cl-IB-MECA; format: functional, cell-based
Adenosine receptor A3 [9] = target: T2, Adenosine receptor A3; assay: Partial agonist activity at recombinant human A3AR expressed in HEK293 cells assessed as inhibition of forskolin-stimulated cAMP accumulation measured after 30 mins in presence of A2BAR blocker PSB-603 by Glo-sensor assay; format: functional, cell-based
[10] = target: T8, Adenosine receptor A3 (Mus musculus) (UniProt Q61618); assay: Partial agonist activity at recombinant mouse A3AR expressed in HEK293 cell membranes assessed as stimulation of [35S]GTPgammaS binding measured after 2 hrs in presence of A2BAR blocker PSB-603 by liquid scintillation counting analysis relative to adenosine-5'-Nethyluronamide; format: functional
T8 sequence (whole entry): T3 sequence (Q61618 whole entry)

Translocator protein = Translocator protein (Homo sapiens, UniProt P30536); assay: Inhibition of TSPO (unknown origin)
Adenosine receptor A2a [11] = target: T1, Adenosine receptor A2a; assay: Displacement of [3H]CGS21680 from recombinant human A2AAR expressed in HEK293 cell membranes measured after 60 mins by liquid scintillation counting method

T1 sequence (P29274 whole entry): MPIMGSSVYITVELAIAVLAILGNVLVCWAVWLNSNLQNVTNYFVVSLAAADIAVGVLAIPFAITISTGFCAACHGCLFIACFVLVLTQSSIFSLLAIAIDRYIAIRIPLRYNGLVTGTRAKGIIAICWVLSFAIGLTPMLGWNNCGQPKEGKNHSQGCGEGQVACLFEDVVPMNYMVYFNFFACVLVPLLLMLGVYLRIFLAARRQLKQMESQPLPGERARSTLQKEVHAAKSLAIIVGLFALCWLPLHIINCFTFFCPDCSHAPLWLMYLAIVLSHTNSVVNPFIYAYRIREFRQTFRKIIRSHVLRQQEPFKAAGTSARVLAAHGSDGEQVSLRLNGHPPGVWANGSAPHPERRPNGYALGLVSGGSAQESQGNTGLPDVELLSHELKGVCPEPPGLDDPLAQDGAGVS
Chain of Translocator protein (P30536 whole entry): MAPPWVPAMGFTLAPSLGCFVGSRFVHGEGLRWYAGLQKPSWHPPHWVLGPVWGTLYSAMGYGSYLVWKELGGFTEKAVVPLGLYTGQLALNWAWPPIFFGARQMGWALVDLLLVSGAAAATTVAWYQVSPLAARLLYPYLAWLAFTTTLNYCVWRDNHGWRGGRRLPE

Row | Structure (SMILES) | inhibition (Adenosine receptor A2a [1]) | Ki (Adenosine receptor A3 [2]) | Ki (Adenosine receptor A3 [3]) | inhibition [4] | other results
1 | COc1cc(CCNc2nc(C#Cc3ccc(F)cc3)nc3c2ncn3[C@H]2[C@H](O)[C@H](O)[C@@H]3C[C@@H]32)ccc1O | 51% | 6.51 nM | 54.4 nM | 39% | 
2 | Oc1ccc(CCNc2nc(C#Cc3ccccc3)nc3c2ncn3[C@H]2[C@H](O)[C@H](O)[C@@H]3C[C@@H]32)cc1 | 32% | 45.6 nM | 76.4 nM | 29% | 
3 | Nc1ccc(CCNc2nc(C#Cc3ccccc3)nc3c2ncn3[C@H]2[C@H](O)[C@H](O)[C@@H]3C[C@@H]32)cc1 | 26% | 14.2 nM | 60.4 nM | 30% | 
4 | O[C@@H]1[C@H](O)[C@@H]2C[C@@H]2[C@H]1n1cnc2c(NCCc3cccc(F)c3)nc(C#Cc3ccccc3)nc21 | 27% | 35.9 nM | 264 nM |  | Ki (Adenosine receptor A1 [5]): 2680 nM
5 | Oc1ccc(CCNc2nc(C#Cc3ccccc3)nc3c2ncn3[C@H]2[C@H](O)[C@H](O)[C@@H]3C[C@@H]32)cc1O | 27% | 48.8 nM | 39.8 nM | 28% | Ki (Adenosine receptor A1 [6]): 1420 nM
6 | COc1cc(CCNc2nc(C#Cc3cccc(F)c3)nc3c2ncn3[C@H]2[C@H](O)[C@H](O)[C@@H]3C[C@@H]32)ccc1O | 51% | 4.63 nM | 72.2 nM | 38% | 
7 | COc1cc(CCNc2nc(C#Cc3ccc(Br)s3)nc3c2ncn3[C@H]2[C@H](O)[C@H](O)[C@@H]3C[C@@H]32)ccc1O | 38% | 3.24 nM | 26 nM | 15% | Emax [7]: 61%; Emax [8]: 50%; Ki (Adenosine receptor A1 [6]): 2840 nM; EC50 (Adenosine receptor A3 [9]): 692 nM
8 | COc1ccc(CCNc2nc(C#Cc3ccccc3)nc3c2ncn3[C@H]2[C@H](O)[C@H](O)[C@@H]3C[C@@H]32)cc1OC | 28% | 16.3 nM | 331 nM |  | Ki (Adenosine receptor A1 [5]): 208 nM
9 | O[C@@H]1[C@H](O)[C@@H]2C[C@@H]2[C@H]1n1cnc2c(NCCc3ccc(F)c(F)c3)nc(C#Cc3ccc(Cl)s3)nc21 | 57% | 47.1 nM | 2520 nM | 28% | 
10 | O[C@@H]1[C@H](O)[C@@H]2C[C@@H]2[C@H]1n1cnc2c(NCCc3cccc(F)c3)nc(C#Cc3ccc(F)s3)nc21 | 48% | 55.8 nM | 404 nM |  | Ki (Adenosine receptor A1 [5]): 2290 nM
11 | COc1cc(CCNc2nc(I)nc3c2ncn3[C@H]2[C@H](O)[C@H](O)[C@@H]3C[C@@H]32)ccc1O | 49% | 9.1 nM | 92.5 nM | 50% | 
12 | COc1cc(CCNc2nc(C#Cc3ccc(Cl)s3)nc3c2ncn3[C@H]2[C@H](O)[C@H](O)[C@@H]3C[C@@H]32)ccc1O | 38% | 9.52 nM | 74.7 nM |  | Ki (Adenosine receptor A1 [5]): 649 nM
13 | CCNC(=O)[C@H]1O[C@@H](n2cnc3c(N)ncnc32)[C@H](O)[C@@H]1O |  |  |  |  | Emax [10]: 100%
14 | COc1ccc(CCNc2nc(C#Cc3ccccc3)nc3c2ncn3[C@H]2[C@H](O)[C@H](O)[C@@H]3C[C@@H]32)cc1O | 27% | 6.85 nM | 122 nM | 49% | 
15 | O[C@@H]1[C@H](O)[C@@H]2C[C@@H]2[C@H]1n1cnc2c(NCCc3cccc(F)c3)nc(C#Cc3ccc(Cl)s3)nc21 | 55% | 42.2 nM | 488 nM | 31% | Ki (Translocator protein): 200 nM
16 | Cc1cccc(CCNc2nc(C#Cc3ccc(Cl)s3)nc3c2ncn3[C@H]2[C@H](O)[C@H](O)[C@@H]3C[C@@H]32)c1 | 50% | 106 nM | 675 nM | 29% | 
17 | Oc1ccc(CCNc2nc(C#Cc3ccccc3)nc3c2ncn3[C@H]2[C@H](O)[C@H](O)[C@@H]3C[C@@H]32)cc1F | 17% | 9.03 nM | 61.6 nM | 44% | 
18 | COc1cc(CCNc2nc(C#Cc3ccccc3F)nc3c2ncn3[C@H]2[C@H](O)[C@H](O)[C@@H]3C[C@@H]32)ccc1O |  | 5.42 nM | 21.5 nM |  | Ki (Adenosine receptor A2a [11]): 5850 nM; Ki (Adenosine receptor A1 [6]): 620 nM; Ki (Adenosine receptor A1 [5]): 186 nM
19 | COc1cc(CCNc2nc(C#Cc3ccc(F)c(F)c3)nc3c2ncn3[C@H]2[C@H](O)[C@H](O)[C@@H]3C[C@@H]32)ccc1O | 33% | 12.8 nM | 75 nM |  | Ki (Adenosine receptor A1 [5]): 341 nM
20 | O[C@@H]1[C@H](O)[C@@H]2C[C@@H]2[C@H]1n1cnc2c(NCCc3cccc(Cl)c3)nc(C#Cc3ccc(Cl)s3)nc21 | 59% | 58.4 nM | 531 nM | 39% | 
21 | O[C@@H]1[C@H](O)[C@@H]2C[C@@H]2[C@H]1n1cnc2c(NCCc3ccccc3)nc(C#Cc3ccccc3Cl)nc21 |  |  | 980 nM |  | 
22 | O[C@@H]1[C@H](O)[C@@H]2C[C@@H]2[C@H]1n1cnc2c(NCCc3ccccc3)nc(C#Cc3ccc(Cl)s3)nc21 | 46% | 8.17 nM | 995 nM | 10% | Emax [7]: 37.6%; Emax [8]: 80%; EC50 (Adenosine receptor A3 [9]): 2410 nM
23 | O[C@@H]1[C@H](O)[C@@H]2C[C@@H]2[C@H]1n1cnc2c(N[C@H]3C[C@@H]3c3ccccc3)nc(C#Cc3ccc(Cl)s3)nc21 | 44% | 80.5 nM | 1140 nM | 32% | 
24 | COc1cc(CCNc2nc(C#Cc3cccnc3)nc3c2ncn3[C@H]2[C@H](O)[C@H](O)[C@@H]3C[C@@H]32)ccc1O | 39% | 6.7 nM | 155 nM | 36% | 
